In patent US20230183640A1, “METABOLIC INHIBITORS WITH EFFICACY FOR INHIBITING SULFIDE PRODUCTION IN HARSH ENVIRONMENTS” (MC (US) 3 LLC, priority 2020, published 2023):

How the values were obtained:
Format in all cases: cell-based
[1] = tested on: Desulfovibrio alaskensis 14563; experiment: H2S and Log (Growth) efficacy against SRB, 96-Well Plate Method
Protocol: (§1) A lyophilized Desulfovibrio alaskensis 14563, Desulfovibrio longus 51456, and Desulfovibrio gabonensis 700201 pure cultures received from ATCC were resuspended individually in 500 ul of MB 1250. Aseptically, the content was transferred to a 5-mL tube of MB1250 medium. The cultures were incubated in an anaerobic chamber at 30° C. for 72 hrs. Subsequently, an individual stock culture with a final concentration of 25% glycerol were prepared by adding equal volumes of culture and 50% glycerol. 1 ml of the cultures were then transferred to 2-ml cryogenic vials and stored at −80° C. The purity of the stock cultures was evaluated through PCR, by amplifying the 16S rDNA region, and thus, it was verified that the original ATCC sample was a pure culture. 48-hour cultures of ATCC Desulfovibrio alaskensis 14563, Desulfovibrio longus 51456, and Desulfovibrio gabonensis 700201 were prepared in an anaerobic chamber. Each culture was prepared as a 1:10 culture by taking 1 milliliter (mL) of a pure culture and inoculating 9 milliliters (mL) of fresh MB1250 media. The Desulfovibrio alaskensis 14563 and Desulfovibrio gabonensis 700201 were all grown at 30° C. and the Desulfovibrio longus 51456 culture was grown at 35° C.
After the 48-hour incubation, 600 microliters (μL) were taken from each culture and optical density (OD) was measured using a Thermofisher Spectronic 200 Spectrophotometer at 600 nm. Each culture was diluted to 0.05 OD600 in fresh MB1250 media and added to the 96 well plates. Edge wells were not used due to their inherent variability and evaporation of the media. Each of the components were added at their respective concentrations for a final volume of 500 μL per well. In Table 3, 6 and 7, the concentrations of the compound used for the experiments are listed. Each experiment was done with at least three replicates for different treatments and non-treatment controls. […] Plates were then sealed with a titer-top and placed into anaerobic boxes and incubated in an anaerobic incubator at 30° C.
At each time point, sulfide samples were taken, and enumeration plates were made. Enumeration plates were made to determine the log growth in each dosed sample. For this process, enumeration plates were prepared by adding 180 μL fresh media MB1250 containing 0.01 wt % ferrous ammonium sulfate. 20 μL was taken from each well of the challenge plates and transferred to the enumeration plates using a 20-200 μL multichannel pipette. Enumeration plates were mixed three times using the multichannel pipette and serial diluted down the plate tenfold (20 μL into 180 μL). This serial dilution process was repeated for all challenge plate rows giving a total of 6 enumeration plates.
After 7 days these enumeration plates were read. The ferrous ammonium sulfate in each plate would be converted to iron sulfide, changing wells with SRB growth from clear to black. By counting the number of black wells in a row, the log growth from the original well in the challenge plate can be determined.
To determine hydrogen sulfide production in each sample, sulfide samples were also taken from each challenge plate. From each well, 9 μL were taken and added to 60 μL of 2% zinc acetate with 0.02% acetic acid. Then, 180 μL of milliQ water was added. 60 μL of stock solution 1 containing 64% sulfuric acid, <1% Dimethyl-4-phenylenediamine (DMPD), water to 100% was added to each well on the plates. This was followed by 3 μL of stock solution 3 containing 50% Iron (III) chloride. All chemicals are ordered from Fisher Scientific and used as received. These were mixed three times and read after 15 minutes. The plates were read at 670 nm using a Biotek microplate reader. Absorbance readings were converted to mM using a standard curve and this was converted to parts per million using the molar mass of sulfur. The standard curves were made using sodium sulfide nonahydrate solutions to give final solutions of 0, 0.125, 0.25 0.5, 1.0, and 1.5 ppm.

[2] = tested on: Desulfovibrio alaskensis 14563; experiment: H2S and Log (Growth) efficacy, 10 mL Serum Vial Method
Protocol: as §1
After the 48-hour incubation, 600 microliters (μL) were taken from the Desulfovibrio alaskensis 14563 culture and optical density (OD) was measured using a Thermofisher Spectronic 200 Spectrophotometer at 600 nm. Each culture was diluted to 0.05 OD600 in fresh MB1250 media and 5 mL of culture solution is transferred to 10 mL Vials and compound Cis stock solution is added. In Table 4 and 5, the concentrations of the compound C1 used for the experiments are listed. Each experiment was done with at least three replicates for different treatments and non-treatment controls. At 2 days, 3 days and 5 days, enumeration plates were made, and sulfide samples were taken in triplicate.
The enumerations were done in triplicate having 20 μL taken from each vial and placing them into 3 wells of first row in a 96-well plate. Then, the same serial dilution process was done with the test plate procedure as described in 96-well plate method. These enumerations were read after 7 days of growth at 30° C. in the anaerobic chamber. For the sulfide assay, 9 μL were taken from each vial and placed in 3 wells with 2% zinc acetate. The assay procedure was the same as described in 96-well plate method.

[3] = tested on: various microorganism strains; experiment: Comparative testing of C1 in aerobic and anaerobic conditions; details: Examples 2 and 3
Excerpt: Therefore, to further analyze the efficacy of compound C1, comparative testing was done in both aerobic and anaerobic conditions using additional bacteria cultures. For aerobic conditions testing, the following strains were used: Escherichia coli, Pseudomonas aeruginosa, Enterobacter aerogenes, and Klebsiella pneumoniae. For anaerobic testing, the following strains were used: Klebsiella pneumoniae, Enterobacter aerogenes, Escherichia coli, and Enterococcus faecalis.

With `O=C(CN1C(=O)c2cccc3cccc(c23)C1=O)NO` [C1] the H2S ([1]; 3 days, 6.4 PPM) was 15.5 PPM, the “Log (Growth)” value ([1]; 3 days, 6.4 PPM) was 2.7 and the H2S ([1]; 3 days, 12.8 PPM) was 13.5 PPM. The “Log (Growth)” value ([1]; 3 days, 12.8 PPM) was 2.0, the H2S ([1]; 3 days, 25.6 PPM) was 15.1 PPM and the “Log (Growth)” value ([1]; 3 days, 25.6 PPM) was 0.0. The H2S ([1]; 3 days, 51.3 PPM) was 15.4 PPM, the “Log (Growth)” value ([1]; 3 days, 51.3 PPM) was 0.0 and the H2S ([1]; 3 days, 102.5 PPM) was 13.6 PPM. For the same compound, the “Log (Growth)” value ([1]; 3 days, 102.5 PPM) was 0.3, the H2S ([1]; 3 days, 205.0 PPM) was 12.7 PPM and the “Log (Growth)” value ([1]; 3 days, 205.0 PPM) was 0.3. The H2S ([1]; 6 days, 6.4 PPM) was 18.1 PPM, the “Log (Growth)” value ([1]; 6 days, 6.4 PPM) was 3.3 and the H2S ([1]; 6 days, 12.8 PPM) was 23.5 PPM. For the same compound, the “Log (Growth)” value ([1]; 6 days, 12.8 PPM) was 2.7, the H2S ([1]; 6 days, 25.6 PPM) was 8.8 PPM and the “Log (Growth)” value ([1]; 6 days, 25.6 PPM) was 1.0. For the same compound, the H2S ([1]; 6 days, 51.3 PPM) was 8.3 PPM, the “Log (Growth)” value ([1]; 6 days, 51.3 PPM) was 0.0 and the H2S ([1]; 6 days, 102.5 PPM) was 8.7 PPM. The “Log (Growth)” value ([1]; 6 days, 102.5 PPM) was 0.0, the H2S ([1]; 6 days, 205.0 PPM) was 9.0 PPM and the “Log (Growth)” value ([1]; 6 days, 205.0 PPM) was 0.0. For the same compound, the H2S ([2]; 2 days, 0.09 PPM) was 233.1 PPM, the “Log (Growth)” value ([2]; 2 days, 0.09 PPM) was 7.9 and the H2S ([2]; 2 days, 0.19 PPM) was 202.1 PPM. The “Log (Growth)” value ([2]; 2 days, 0.19 PPM) was 8.0, the H2S ([2]; 2 days, 0.38 PPM) was 170.4 PPM and the “Log (Growth)” value ([2]; 2 days, 0.38 PPM) was 7.8. The H2S ([2]; 2 days, 0.75 PPM) was 121.6 PPM, the “Log (Growth)” value ([2]; 2 days, 0.75 PPM) was 7.2 and the H2S ([2]; 3 days, 0.75 PPM) was 190.2 PPM. The “Log (Growth)” value ([2]; 3 days, 0.75 PPM) was 7.4, the H2S ([2]; 3 days, 1.5 PPM) was 50.1 PPM and the “Log (Growth)” value ([2]; 3 days, 1.5 PPM) was 4.8. The H2S ([2]; 3 days, 3.0 PPM) was 23.1 PPM, the “Log (Growth)” value ([2]; 3 days, 3.0 PPM) was 4.0 and the H2S ([2]; 3 days, 6.0 PPM) was 19.2 PPM. The “Log (Growth)” value ([2]; 3 days, 6.0 PPM) was 0.0, the H2S ([2]; 5 days, 0.75 PPM) was 253.3 PPM and the “Log (Growth)” value ([2]; 5 days, 0.75 PPM) was 7.9. The H2S ([2]; 5 days, 1.5 PPM) was 69.9 PPM, the “Log (Growth)” value ([2]; 5 days, 1.5 PPM) was 6.2 and the H2S ([2]; 5 days, 3.0 PPM) was 19.5 PPM. For the same compound, the “Log (Growth)” value ([2]; 5 days, 3.0 PPM) was 1.0, the H2S ([2]; 5 days, 6.0 PPM) was 15 PPM and the “Log (Growth)” value ([2]; 5 days, 6.0 PPM) was 0.0. The “inhibition under anaerobic as opposed to aerobic conditions” value [3] was “preferentially inhibited hydrogen sulfide production under anaerobic conditions” and the “killing of the various microorganism strains” value [3] was “completely killing”.
